From PubChem BioAssay AID256 (DTP/NCI, 2004)
Where “and” joins values, the source holds several entries; their conditions need not be identical. Equal values may be shown once. Inconclusive results and toxic doses are left out. How the source made its calls: active means survival T/C of 150% or more; inactive means T/C below 125% in these data.

Test system: CD2F1 mice, L1210 leukemia ip, survival T/C
Assay: NCI In Vivo Anticancer Drug Screen. Data for tumor model L1210 Leukemia (intraperitoneal) in CD2F1 (CDF1) mice
Settings: higher = longer survival
Method in brief: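 Antitumor effect is scored in animals hosting a serially transplanted tumor. Values compare compound-dosed animals against vehicle-only controls as a simple quotient.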

[1] = endpoint: mean survival time, dose: 100.0 mg/kg/injection, schedule: Q04DX002 (ip), vehicle: saline with Tween-80
[2] = endpoint: mean survival time, dose: 25.0 mg/kg/injection, schedule: Q04DX002 (ip), vehicle: saline with Tween-80
[3] = endpoint: mean survival time, dose: 50.0 mg/kg/injection, schedule: Q04DX002 (ip), vehicle: saline with Tween-80
[4] = endpoint: mean survival time, dose: 100.0 mg/kg/injection, schedule: Q04DX003 (ip), vehicle: saline with Tween-80
[5] = endpoint: mean survival time, dose: 200.0 mg/kg/injection, schedule: Q04DX003 (ip), vehicle: saline with Tween-80
[6] = endpoint: mean survival time, dose: 400.0 mg/kg/injection, schedule: Q04DX003 (ip), vehicle: saline with Tween-80

Measured: T/C

COC(=O)CCCCCCCCCC(=O)OC
inactive: [1] 87 % of control | endpoint: mean survival time, dose: 200.0 mg/kg/injection, schedule: Q04DX002 (ip), vehicle: saline with Tween-80 102 % of control | endpoint: mean survival time, dose: 400.0 mg/kg/injection, schedule: Q04DX002 (ip), vehicle: saline with Tween-80 98 % of control

O=C(COc1ccccc1-c1ccccc1)Nc1ccccc1-c1ccccc1
inactive: [2] 98 % of control | [3] 98 % of control | [1] 94 % of control

CSC(=CC(=O)c1ccccc1)SC
inactive: endpoint: mean survival time, dose: 75.0 mg/kg/injection, schedule: Q01DX001 (ip), vehicle: saline 101 % of control | endpoint: mean survival time, dose: 150.0 mg/kg/injection, schedule: Q01DX001 (ip), vehicle: saline 106 % of control

O=C1Cc2ccccc2CO1
inactive: [4] 97 % of control | [5] 94 % of control | [6] 105 % of control

Cc1cn(C2OC(CO)C(O)C2O)c(=O)nc1N (configuration not stated)
inactive: endpoint: median survival time, dose: 25.0 mg/kg/injection, schedule: Q01DX005 (ip), vehicle: water 96 % of control | endpoint: median survival time, dose: 50.0 mg/kg/injection, schedule: Q01DX005 (ip), vehicle: water 104 % of control | endpoint: median survival time, dose: 100.0 mg/kg/injection, schedule: Q01DX005 (ip), vehicle: water 104 % of control | endpoint: median survival time, dose: 200.0 mg/kg/injection, schedule: Q01DX005 (ip), vehicle: water 104 % of control

O=S(=O)(O)c1cc(N=Nc2cccc3ccccc23)c(O)c2ncccc12
inactive: [4] 104 % of control | [5] 97 % of control | [6] 106 % of control

COc1cccc(Cc2c[nH]c(=O)[nH]c2=O)c1
inactive: [4] 98 % of control | [5] 100 % of control | [6] 92 % of control

O=C1C2CC=CCC2C(=O)N1SC(Cl)(Cl)Cl (configuration not stated)
inactive: endpoint: mean survival time, dose: 0.78 mg/kg/injection, schedule: Q01DX009 (ip), vehicle: saline with Tween-80 97 % of control | endpoint: mean survival time, dose: 1.56 mg/kg/injection, schedule: Q01DX009 (ip), vehicle: saline with Tween-80 97 % of control | endpoint: mean survival time, dose: 3.12 mg/kg/injection, schedule: Q01DX009 (ip), vehicle: saline with Tween-80 97 % of control | endpoint: mean survival time, dose: 6.25 mg/kg/injection, schedule: Q01DX009 (ip), vehicle: saline with Tween-80 93 % of control | endpoint: mean survival time, dose: 12.5 mg/kg/injection, schedule: Q01DX009 (ip), vehicle: saline with Tween-80 101 % of control | endpoint: mean survival time, dose: 25.0 mg/kg/injection, schedule: Q01DX009 (ip), vehicle: saline with Tween-80 89 % of control

CCC(C)OP(=S)(S)OC(C)CC.[Zn+2] (configuration not stated)
inactive: endpoint: mean survival time, dose: 0.75 mg/kg/injection, schedule: Q01DX009 (ip), vehicle: saline with Tween-80 88 % of control and 90 % of control | endpoint: mean survival time, dose: 1.5 mg/kg/injection, schedule: Q01DX009 (ip), vehicle: saline with Tween-80 103 % of control | endpoint: mean survival time, dose: 3.0 mg/kg/injection, schedule: Q01DX009 (ip), vehicle: saline with Tween-80 88 % of control and 92 % of control | endpoint: mean survival time, dose: 3.13 mg/kg/injection, schedule: Q01DX009 (ip), vehicle: saline with Tween-80 86 % of control and 88 % of control | endpoint: mean survival time, dose: 6.25 mg/kg/injection, schedule: Q04DX003 (ip), vehicle: saline with Tween-80 93 % of control | endpoint: mean survival time, dose: 12.5 mg/kg/injection, schedule: Q01DX001 (ip), vehicle: saline with Tween-80 101 % of control | endpoint: mean survival time, dose: 12.5 mg/kg/injection, schedule: Q04DX003 (ip), vehicle: saline with Tween-80 95 % of control | endpoint: mean survival time, dose: 25.0 mg/kg/injection, schedule: Q01DX001 (ip), vehicle: saline with Tween-80 100 % of control | [2] 94 % of control and 100 % of control | endpoint: mean survival time, dose: 25.0 mg/kg/injection, schedule: Q04DX003 (ip), vehicle: saline with Tween-80 97 % of control | [3] 120 % of control and 94 % of control

CC1(C)SCNC1C(=O)O (configuration not stated)
inactive: endpoint: mean survival time, dose: 100.0 mg/kg/injection, schedule: Q01DX001 (ip), vehicle: saline 96 % of control | endpoint: mean survival time, dose: 200.0 mg/kg/injection, schedule: Q01DX001 (ip), vehicle: saline 100 % of control | endpoint: mean survival time, dose: 400.0 mg/kg/injection, schedule: Q01DX001 (ip), vehicle: saline 94 % of control

C(CCSC1=NCCN1)CSC1=NCCN1
inactive: endpoint: mean survival time, dose: 25.0 mg/kg/injection, schedule: Q04DX002 (ip), vehicle: saline 96 % of control | endpoint: mean survival time, dose: 50.0 mg/kg/injection, schedule: Q04DX002 (ip), vehicle: saline 107 % of control | endpoint: mean survival time, dose: 100.0 mg/kg/injection, schedule: Q04DX002 (ip), vehicle: saline 90 % of control

CC(=O)C1CC(=O)c2c(O)ccc(O)c2C1 (configuration not stated)
inactive: endpoint: mean survival time, dose: 12.5 mg/kg/injection, schedule: Q01DX009 (ip), vehicle: water 95 % of control | endpoint: mean survival time, dose: 25.0 mg/kg/injection, schedule: Q01DX009 (ip), vehicle: water 101 % of control | endpoint: mean survival time, dose: 50.0 mg/kg/injection, schedule: Q01DX009 (ip), vehicle: water 95 % of control | endpoint: mean survival time, dose: 100.0 mg/kg/injection, schedule: Q01DX009 (ip), vehicle: water 100 % of control | endpoint: mean survival time, dose: 200.0 mg/kg/injection, schedule: Q01DX009 (ip), vehicle: water 100 % of control

O=CNc1cccc2ccc3c4ccccc4ccc3c12
inactive: [4] 98 % of control | [6] 91 % of control

CCCCCCCC(=O)Nc1c(C)cccc1C
inactive: endpoint: mean survival time, dose: 100.0 mg/kg/injection, schedule: Q01DX009 (ip), vehicle: saline with Tween-80 96 % of control | endpoint: mean survival time, dose: 200.0 mg/kg/injection, schedule: Q01DX009 (ip), vehicle: saline with Tween-80 88 % of control | endpoint: mean survival time, dose: 400.0 mg/kg/injection, schedule: Q01DX009 (ip), vehicle: saline with Tween-80 91 % of control

CC(C)NC(=O)CCCN(C(=O)OCc1ccccc1)N(C)C(=O)OCc1ccccc1
inactive: endpoint: mean survival time, dose: 25.0 mg/kg/injection, schedule: Q04DX003 (ip), vehicle: Klucel (hydroxypropylcellulose) (HPC) 94 % of control | endpoint: mean survival time, dose: 50.0 mg/kg/injection, schedule: Q04DX003 (ip), vehicle: Klucel (hydroxypropylcellulose) (HPC) 91 % of control | endpoint: mean survival time, dose: 100.0 mg/kg/injection, schedule: Q04DX003 (ip), vehicle: Klucel (hydroxypropylcellulose) (HPC) 103 % of control | endpoint: mean survival time, dose: 200.0 mg/kg/injection, schedule: Q04DX003 (ip), vehicle: Klucel (hydroxypropylcellulose) (HPC) 91 % of control | endpoint: mean survival time, dose: 400.0 mg/kg/injection, schedule: Q04DX003 (ip), vehicle: Klucel (hydroxypropylcellulose) (HPC) 95 % of control

CCC1(CC)OC2=C(CC(C#N)(C#N)C(C#N)(C#N)C2)O1
inactive: endpoint: mean survival time, dose: 5.0 mg/kg/injection, schedule: Q04DX003 (ip), vehicle: other 103 % of control | endpoint: mean survival time, dose: 10.0 mg/kg/injection, schedule: Q04DX003 (ip), vehicle: other 92 % of control | endpoint: mean survival time, dose: 20.0 mg/kg/injection, schedule: Q04DX003 (ip), vehicle: other 96 % of control

O=S(OCC1COS(=O)O1)OCC1COS(=O)O1 (configuration not stated)
inactive: endpoint: mean survival time, dose: 100.0 mg/kg/injection, schedule: Q01DX001 (ip), vehicle: saline sonified 106 % of control | endpoint: mean survival time, dose: 200.0 mg/kg/injection, schedule: Q01DX001 (ip), vehicle: saline sonified 97 % of control | endpoint: mean survival time, dose: 400.0 mg/kg/injection, schedule: Q01DX001 (ip), vehicle: saline sonified 104 % of control

Cc1ccc(S(=O)(=O)N/N=C/c2ccc(O)c(O)c2)cc1
inactive: endpoint: mean survival time, dose: 12.5 mg/kg/injection, schedule: Q04DX003 (ip), vehicle: other 101 % of control | endpoint: mean survival time, dose: 25.0 mg/kg/injection, schedule: Q04DX003 (ip), vehicle: other 98 % of control | endpoint: mean survival time, dose: 50.0 mg/kg/injection, schedule: Q04DX003 (ip), vehicle: other 101 % of control | endpoint: mean survival time, dose: 100.0 mg/kg/injection, schedule: Q04DX003 (ip), vehicle: other 101 % of control | endpoint: mean survival time, dose: 200.0 mg/kg/injection, schedule: Q04DX003 (ip), vehicle: other 95 % of control | endpoint: mean survival time, dose: 400.0 mg/kg/injection, schedule: Q04DX003 (ip), vehicle: other 101 % of control

CC(=O)OCC1OC(OC2=C(CC=C(C)C)C(=O)c3ccccc3C2=O)C(OC(C)=O)C(OC(C)=O)C1OC(C)=O (configuration not stated)
inactive: endpoint: mean survival time, dose: 6.25 mg/kg/injection, schedule: Q01DX009 (ip), vehicle: Klucel (hydroxypropylcellulose) (HPC) 108 % of control | endpoint: mean survival time, dose: 12.5 mg/kg/injection, schedule: Q01DX009 (ip), vehicle: Klucel (hydroxypropylcellulose) (HPC) 101 % of control and 108 % of control | endpoint: mean survival time, dose: 25.0 mg/kg/injection, schedule: Q01DX009 (ip), vehicle: Klucel (hydroxypropylcellulose) (HPC) 101 % of control and 108 % of control | endpoint: mean survival time, dose: 50.0 mg/kg/injection, schedule: Q01DX009 (ip), vehicle: Klucel (hydroxypropylcellulose) (HPC) 101 % of control | endpoint: mean survival time, dose: 100.0 mg/kg/injection, schedule: Q01DX009 (ip), vehicle: Klucel (hydroxypropylcellulose) (HPC) 92 % of control and 102 % of control | endpoint: mean survival time, dose: 200.0 mg/kg/injection, schedule: Q01DX009 (ip), vehicle: Klucel (hydroxypropylcellulose) (HPC) 89 % of control and 96 % of control

COc1cccc2c1CCN1C3=C(CC(OC)CC3)C(=O)CC21 (configuration not stated)
inactive: [2] 93 % of control | [3] 104 % of control | [1] 96 % of control | [4] 101 % of control

O=C(c1ccccc1)N(C(=O)c1ccccc1)c1cccc[n+]1[O-]
inactive: [4] 100 % of control | [5] 97 % of control | [6] 102 % of control

COC(=O)c1ccc(NCC(=N)N)cc1
inactive: endpoint: mean survival time, dose: 50.0 mg/kg/injection, schedule: Q01DX009 (ip), vehicle: saline 100 % of control | endpoint: mean survival time, dose: 100.0 mg/kg/injection, schedule: Q01DX009 (ip), vehicle: saline 122 % of control | endpoint: mean survival time, dose: 200.0 mg/kg/injection, schedule: Q01DX009 (ip), vehicle: saline 100 % of control
